According to US20090253634A1, “Methods and Compositions for the Treatment of Gastrointestinal Disorders” (MICROBIA, INC., priority 2005, published 2009):
Bridge positions count the residues as written; N and C are the ends. Peptide text beside a SMILES is read from it.

Assays:
intestinal GC-C receptor = biological target: T1, intestinal GC-C receptor (Homo sapiens, UniProt P25092); test: GC-C receptor activity assay (cyclic GMP) in T84 cells; format: cell-based; details: chemically synthesized peptides, cyclic GMP by EIA
T1 construct: monolayers of T84 cells in 24-well plates; host or cells: T84 human colon carcinoma cells
Description: The ability of SEQ ID NO:5, SEQ ID NO:4, SEQ ID NO:3, and SEQ ID NO:6 to activate the intestinal GC-C receptor was assessed in an assay employing the T84 human colon carcinoma cell line (American Type Culture Collection (Bethesda, Md.)). For the assays cells were grown to confluency in 24-well culture plates with a 1:1 mixture of Ham's F12 medium and Dulbecco's modified Eagle's medium (DMEM), supplemented with 5% fetal calf serum and were used at between passages 54 and 60.
Briefly, monolayers of T84 cells in 24-well plates were washed twice with 1 ml/well DMEM, then incubated at 37° C. for 10 min with 0.45 ml DMEM containing 1 mM isobutylmethylxanthine (IBMX), a cyclic nucleotide phosphodiesterase inhibitor, Test peptides (50 μl) were then added and incubated for 30 minutes at 37° C. The media was aspirated and the reaction was then terminated by the addition of ice cold 0.5 ml of 0.1N HCl. The samples were held on ice for 20 minutes and then evaporated to dryness using a heat gun or vacuum centrifugation.

gastrointestinal transit = test: murine gastrointestinal transit (GIT) assay, acute and chronic dosing; format: in vivo, mice
Description: In order to determine whether the peptides increase the rate of gastrointestinal transit, the peptides and controls were tested using a murine gastrointestinal transit (GIT) assay (Moon et al. Infection and Immunity 25:127, 1979). In this assay, charcoal, which can be readily visualized in the gastrointestinal tract is administered to mice after the administration of a test compound. The distance traveled by the charcoal is measured and expressed as a percentage of the total length of the […].
Mice were fasted with free access to water for 12 to 16 hours before the treatment with peptide or control buffer. The peptides were orally administered at 1 μg/kg-1 mg/kg of peptide in buffer ([…] pH 7.5) 7 minutes before being given an oral dose of 5% Activated Carbon (Aldrich 242276-250G). Control mice were administered buffer only before being given a dose of Activated Carbon. After 15 minutes, the mice were sacrificed and their intestines from the stomach to the cecum were dissected. The total length of the intestine as well as the distance traveled from the stomach to the charcoal front was measured for each animal and the results are expressed as the percent of the total length of the intestine traveled by the charcoal front. All results are reported as the average of 10 mice±standard deviation. A comparison of the distance traveled by the charcoal between the mice treated with peptide versus the mice treated with vehicle alone was performed using a Student's t test and a statistically significant difference was considered for P<0.05. P-values are calculated using a two-sided T-Test assuming unequal variances.
The identical experiment was performed to determine if SEQ ID NO:3 is effective in a chronic dosing treatment regimen. Briefly, 8 week old CD1 female mice are dosed orally once a day for 5 days with either SEQ ID NO:3 (0.06 mg/kg or 0.25 mg/kg in 20 mM Tris pH 7.5) or vehicle alone (20 mM Tris pH 7.5). On the 5th day, a GIT assay is performed identical to that above except 200 μl of a 10% charcoal solution is administered. […] The results are shown side by side with acute dosing (1 day).

aminopeptidase = biological target: T2, aminopeptidase (Sus scrofa, UniProt P15145); test: in vitro proteolytic stability: aminopeptidase; format: in vitro ADME; details: 37° C., up to 24 h
T2 construct: purchased Roche 102768
T2 sequence (P15145 1-963): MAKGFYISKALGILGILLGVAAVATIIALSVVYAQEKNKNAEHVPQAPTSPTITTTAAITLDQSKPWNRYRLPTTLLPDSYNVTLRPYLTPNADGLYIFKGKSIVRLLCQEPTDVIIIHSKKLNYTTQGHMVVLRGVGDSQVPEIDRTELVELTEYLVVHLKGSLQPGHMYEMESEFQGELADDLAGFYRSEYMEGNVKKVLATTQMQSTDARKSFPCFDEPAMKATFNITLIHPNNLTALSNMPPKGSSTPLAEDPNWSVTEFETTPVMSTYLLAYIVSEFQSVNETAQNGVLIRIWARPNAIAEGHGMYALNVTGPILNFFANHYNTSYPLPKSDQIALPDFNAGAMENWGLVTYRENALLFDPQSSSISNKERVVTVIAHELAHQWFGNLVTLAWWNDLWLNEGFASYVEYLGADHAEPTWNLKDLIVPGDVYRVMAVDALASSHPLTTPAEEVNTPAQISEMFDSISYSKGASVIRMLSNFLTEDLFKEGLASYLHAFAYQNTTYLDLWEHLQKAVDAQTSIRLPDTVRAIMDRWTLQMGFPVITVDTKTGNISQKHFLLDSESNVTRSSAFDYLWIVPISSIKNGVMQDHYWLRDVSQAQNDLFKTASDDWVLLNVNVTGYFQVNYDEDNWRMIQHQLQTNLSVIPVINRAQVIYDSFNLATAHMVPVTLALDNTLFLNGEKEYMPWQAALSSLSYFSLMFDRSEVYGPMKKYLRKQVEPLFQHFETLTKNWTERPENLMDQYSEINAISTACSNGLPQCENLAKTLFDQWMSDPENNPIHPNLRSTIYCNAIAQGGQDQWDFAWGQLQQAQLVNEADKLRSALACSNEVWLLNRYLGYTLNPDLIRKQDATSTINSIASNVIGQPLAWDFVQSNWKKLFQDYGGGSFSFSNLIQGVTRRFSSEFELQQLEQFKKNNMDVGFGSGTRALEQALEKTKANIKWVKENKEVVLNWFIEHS
Description: (§1) All samples were analyzed by LC/MS

[1] = stability in simulated gastric fluid (SGF); format: in vitro ADME; details: pH 1, 37° C., up to 3 h
Description: as §1
The reference control sample was diluted 10-fold (1000 μL volume) in distilled water for a final concentration of 10 μM and chilled on ice. At each time point, samples were diluted 10-fold (1000 μL volume) in distilled water for an expected concentration of 10 μM, and chilled on ice, until analysis.

PBQ-induced writhing = test: phenylbenzoquinone (PBQ)-induced writhing model

T1 sequence (P25092 24-1073): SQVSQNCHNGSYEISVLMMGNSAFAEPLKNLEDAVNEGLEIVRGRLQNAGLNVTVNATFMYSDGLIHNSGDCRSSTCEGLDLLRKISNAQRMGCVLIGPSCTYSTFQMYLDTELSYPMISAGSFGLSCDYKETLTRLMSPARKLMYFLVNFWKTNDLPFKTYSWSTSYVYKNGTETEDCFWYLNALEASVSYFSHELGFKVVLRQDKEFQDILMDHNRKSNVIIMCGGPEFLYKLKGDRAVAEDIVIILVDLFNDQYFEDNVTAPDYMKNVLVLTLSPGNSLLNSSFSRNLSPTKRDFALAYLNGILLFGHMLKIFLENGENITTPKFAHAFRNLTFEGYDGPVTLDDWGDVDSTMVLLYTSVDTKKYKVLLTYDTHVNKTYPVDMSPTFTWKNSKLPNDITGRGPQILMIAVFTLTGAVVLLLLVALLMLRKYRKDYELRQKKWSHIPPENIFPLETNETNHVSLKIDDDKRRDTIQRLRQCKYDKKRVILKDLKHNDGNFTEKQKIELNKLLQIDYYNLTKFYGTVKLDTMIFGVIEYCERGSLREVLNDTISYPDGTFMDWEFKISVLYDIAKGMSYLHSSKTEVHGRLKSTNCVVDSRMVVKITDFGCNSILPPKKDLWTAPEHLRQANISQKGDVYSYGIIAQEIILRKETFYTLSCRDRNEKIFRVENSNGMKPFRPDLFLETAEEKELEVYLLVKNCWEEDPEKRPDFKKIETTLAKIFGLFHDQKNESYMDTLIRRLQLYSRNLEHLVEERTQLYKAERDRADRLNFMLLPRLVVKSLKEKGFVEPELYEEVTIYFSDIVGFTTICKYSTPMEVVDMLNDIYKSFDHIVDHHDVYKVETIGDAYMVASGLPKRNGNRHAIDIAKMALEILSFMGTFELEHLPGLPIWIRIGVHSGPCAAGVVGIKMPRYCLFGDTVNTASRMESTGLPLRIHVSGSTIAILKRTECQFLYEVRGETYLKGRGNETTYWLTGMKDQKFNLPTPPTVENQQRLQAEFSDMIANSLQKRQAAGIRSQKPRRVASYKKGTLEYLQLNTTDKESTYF

## C[C@@H]1NC(=O)[C@@H]2CCCN2C(=O)[C@H](CC(N)=O)NC(=O)[C@@H]2CSSC[C@H](N)C(=O)N[C@H]3CSSC[C@H](NC1=O)C(=O)N[C@@H]([C@@H](C)O)C(=O)NCC(=O)N[C@H](C(=O)N[C@@H](Cc1ccc(O)cc1)C(=O)O)CSSC[C@H](NC(=O)[C@H](Cc1ccc(O)cc1)NC(=O)[C@H](CCC(=O)O)NC3=O)C(=O)N2 [SEQ ID NO:3] (H-CCEYCCNPACTGCY-OH; disulfide 1-6, 2-10, 5-13; N-terminus and C-terminus assumed)
Intestinal GC-C receptor
  activity in GC-C receptor activity assay: activity comparable to SEQ ID NO:4
Gastrointestinal transit; acute, chemically synthesized peptides, FIG. 4b
  intestinal transit rates versus Tris buffer or equivalent dose of Zelnorm: increase intestinal transit rates more than either Tris buffer alone or an equivalent dose of Zelnorm®
Gastrointestinal transit; acute, oral, SEQ ID NO:4 and Zelnorm 0.1 mg/kg, FIG. 3a, 3b
  gastrointestinal transit rate: increase gastrointestinal transit rate
Gastrointestinal transit; oral once a day for 5 days, SEQ ID NO:3 0.06 or 0.25 mg/kg, FIG. 4c
  effect in mouse gastrointestinal motility assay upon chronic dosing: effective
aminopeptidase
  Cleavage of SEQ ID NO: 3 by proteolytic substance: not detectable
[1]
  Cleavage of SEQ ID NO: 3 by proteolytic substance: not detectable
PBQ-induced writhing; 2.5 mg/kg dose, oral
  writhings versus vehicle control: Significant reductions in writhings
PBQ-induced writhing; PBQ writhing assay
  antinociceptive effect compared with indomethacin: antinociceptive effects in this visceral pain model comparable to the intermediate doses of indomethacin
